# Results taken from ChEMBL document CHEMBL3507680, “University of Dundee, Gates Library screen for HepG2 cell viability”.
# Assay: Human HepG2 cell viability assay in 384 well format
# Type: toxicity, cell-based
# Parameters: dose 125 nL, time 70.5 hour; cytotoxicity at 70.5 h: concentration not given beside the values
# Conditions: HepG2 cells, read-out: Inhibition
row,SMILES,cytotoxicity at 70.5 h
1,O=C(CCOc1cccc(F)c1)N1CCCC1Cn1cccn1 (stereo not drawn),-0.422%
2,O=C(c1cccnc1N1CCOCC1)N1CCCC(n2cncn2)C1 (stereo not drawn),18.2%
3,Cc1oncc1C(=O)N1CCC2(CC1)CC(N1CCOCC1)C2,-11.3%
4,CCn1nc(C)c2nc(C(C)C)nc(NCC(=O)N3CCOCC3)c21,5.24%
5,COc1cc(CNCc2ccc(C(C)O)cc2)cc2c1OCO2 (stereo not drawn),44.3%
6,Cc1ccc(CN2CCn3c(CN(C)C(C)C)cnc3C2)s1,-6.07%
7,CC(C)c1noc(CCCC(=O)N2CCN(Cc3ccsc3)CC2)n1,-6.21%
8,CC(C)(C)n1ncc(NCCc2ccccc2C(F)(F)F)c(Cl)c1=O,33%
9,Cc1nc[nH]c1-c1c(-c2ccccc2)ncn1C1CCNC1 (stereo not drawn),-1.75%
10,CCOc1ccc(-c2cc(=O)n3c(n2)CCCCC3)cc1,-5.56%
11,CN(C)c1ncc(-c2cc(C(=O)NCCC#N)n(CC3CC3)c2)cn1,-12.9%
12,CCc1cnc(CN(C)C(=O)Nc2cnn(CC3CCCO3)c2)s1 (stereo not drawn),-4.76%
13,c1cnnc(N2CCCC(NCc3cccc4c3OCCCO4)C2)c1 (stereo not drawn),0.746%
14,COc1ccc(-n2nc(C(C)=O)c(C(C)=O)c2C)cc1Cl,17.1%
15,CS(=O)(=O)NC[C@@H]1OC[C@H]2CN(C(=O)c3ccccc3)CC[C@H]21,15.9%
16,CCOc1ccc(NC(=O)NCC(C)(O)c2cccs2)cc1 (stereo not drawn),-8.04%
17,COc1ccccc1NC(=O)c1[nH]nc(C(C)C)c1Br,-3.43%
18,OC(c1cnn(-c2ccccc2)c1)C(F)(F)F (stereo not drawn),-1.66%
19,Cc1ccccc1OCCC(=O)N1CCc2nc(C)n(C)c(=O)c2CC1,-8.53%
20,CN1CCC2(CCN(Cc3nccs3)CC2)C1=O,-1.5%
21,O=C(CSC(F)(F)F)N1CCC2(CCCN(C3CCOCC3)C2=O)C1 (stereo not drawn),15%
22,Cc1cc(C(C)NCCN2CCC(N(C)C)CC2)c(C)s1 (stereo not drawn),12.7%
23,CCc1ccc(C(=O)N2CCCCC2CNS(C)(=O)=O)o1 (stereo not drawn),-2.32%

row,SMILES,cytotoxicity at 70.5 h
1,O=C(Cc1ccc2c(c1)CCC2)N1CCCC(n2cccn2)C1 (stereo not drawn),-6.54%
2,Cc1ccc(-c2nnc(CNCCn3cc(C)cn3)o2)cc1,-18.3%
3,c1cncc(-c2nnc([C@H]3CCN(CC4CCCCC4)C3)o2)c1,-6.55%
4,CCOC(C)c1nc(CN2CCN(c3nccc(C)n3)CC2)cs1 (stereo not drawn),-8.29%
5,O=C1CC[C@H]2[C@H](CCN2C(=O)C2CCCO2)N1CCN1CCCC1 (stereo partly drawn),-21.6%
6,O=c1cc(CN2CCCC2)nc2n1CCCN(S(=O)(=O)C1CC1)C2,-1.37%
7,CN(C)C(=O)Cn1cc(C(=O)NCCc2cccc(Cl)c2Cl)nn1,2.52%
8,Cc1nc(-c2ccc(S(=O)(=O)N3CCC=C(F)C3)cc2)co1,-9.72%
9,OC[C@H]1CN(Cc2c(Cl)cncc2Cl)C[C@H]1CN1CCCC1,-9.31%
10,O=C(c1cccnc1O)N(Cc1cccs1)CC1CCCO1 (stereo not drawn),-11.9%
11,Fc1cccc(CN2CCC(c3n[nH]c4ncccc34)CC2)c1F,-9.75%
12,O=C(Cn1ccc2ccccc21)Nc1cc(N2CCOCC2)ncn1,14.8%
13,O=C(CCc1nc2cc(Br)cnc2[nH]1)NCCCN1CCOCC1,-17.4%
14,CC(c1ccncn1)N(C)Cc1cc(O)c2cc(F)ccc2n1 (stereo not drawn),-8.14%
15,O=C1CCN(CCS(=O)(=O)c2ccc(Cl)cc2)CCN1,-11.7%
16,Cc1cnc(CN2CCOC(CNc3cccnn3)C2)cn1 (stereo not drawn),-8.2%
17,CN1CCN(Cc2ccsc2)Cc2cccnc21,-6.75%
18,Cc1cccc2nc(C(=O)N3CCC4(CCC(=O)N(C)C4)CC3)c(F)n12,-11.3%
19,COCCCC1CCCN(C(=O)CCc2cc(O)no2)C1 (stereo not drawn),-1.74%
20,COc1ccc(CS(=O)(=O)CC(=O)NCC2CC2)cc1F,-3.56%
21,CN(CCO)Cc1nnc(C2CCN(CC(C)(C)C)CC2)n1C,-4.91%
22,CCCC(=O)N(C)Cc1nc(N2CCCC2)ncc1-c1ccncc1,-11%
23,CCC(CC)NC(=O)c1ncn2c1CN(CC)S(=O)(=O)c1ccccc1-2,-12.8%

row,SMILES,cytotoxicity at 70.5 h
1,Cc1nc(C)n(CC2CCCN(CCCOc3ccc(F)cc3)C2)n1 (stereo not drawn),-2.75%
2,Cc1cccc(-c2cc(C(=O)O)sn2)c1,-14.1%
3,O=C1CC(N(C(=O)c2ccc3c(c2)CCC3)C2CC2)C(=O)N1 (stereo not drawn),33.4%
4,CCOc1cc(CNC(C)c2sccc2C)ccn1 (stereo not drawn),-0.185%
5,Cc1nc(CN(C)S(=O)(=O)c2ccccc2Br)no1,-3.75%
6,NC(=O)CC1CC2(CCNCC2)c2cc(F)ccc21 (stereo not drawn),-7.94%
7,COc1ccc(CN2C[C@@H]3[C@H](CC(=O)N4CCCC4)[C@@H]3C2)cc1,-9.32%
8,CCCN(CCc1ccccn1)C(=O)CCc1cnn(C)c1,-10.1%
9,Cn1ccnc1CN1CCC2(CC1)CN(Cc1cccnc1)C(=O)CO2,-5.54%
10,NCc1cnn(-c2ccccc2C(=O)N2CCCC(C(N)=O)C2)c1 (stereo not drawn),-2.72%
11,Cc1noc(C)c1CNCc1nn(-c2ccccc2)c2c1CCC2,-3.23%
12,Cc1noc(C)c1CN1Cc2nccn2CC(CN2CCOCC2)C1 (stereo not drawn),-11.8%
13,CC(C#N)CN(C)Cc1cc(Cl)cc2cccnc12 (stereo not drawn),-0.893%
14,CCc1nc(C2CCCN2Cc2cc(C)nc3ccccc23)no1 (stereo not drawn),2.62%
15,Cc1cc(C2CCC2)nc(NCCC23CCCN2CCC3)n1,-8.73%
16,Cc1c[nH]c(CN2CCCCC2CCc2cccc(O)c2)c(C)c1=O (stereo not drawn),-5.58%
17,COc1ccc(C(=O)N2C[C@@H](C(=O)O)[C@H](c3ccccc3)C2)c(O)c1,-8.78%
18,CCCN1CC2(CCN(C)CC2)CC1C(=O)NCc1cc(C)nn1C (stereo not drawn),-12.4%
19,CCCc1nnc(NCc2ccc(OC)c(C#N)c2)o1,20.2%
20,COc1ccc(C2CC(=O)Nc3c2nc2n3CCCC2)cc1OC (stereo not drawn),8.63%
21,COCCOc1cccc(C(=O)N2CCCC(n3ccnc3C)C2)c1 (stereo not drawn),-2.47%
22,O=C(c1ccc(F)c(Cl)c1)N1C[C@@H]2CC[C@H](C1)N(Cc1ccccc1)C2,-5.41%
23,O=C(O)c1ccnc(-c2ccnc(N3CCC(F)(F)CC3)n2)c1,21%

row,SMILES,cytotoxicity at 70.5 h
1,Cc1nc(CN2CCC23CCN(Cc2ccco2)CC3)cs1,-5.68%
2,Cc1nn(C)c2cnn(Cc3ccc(C(=O)NCC4CC4)o3)c12,-10.2%
3,CCNc1ccnc(CN2CCCC2C(=O)Nc2nccs2)c1 (stereo not drawn),8.54%
4,CCCC(NC(=O)c1cc(C)c(F)cc1F)c1nnn[nH]1 (stereo not drawn),-2.37%
5,Cc1nccc(CNC(=O)NCCC(=O)N2CCCc3ccccc32)n1,-2.13%
6,Cc1noc(-c2cccnc2N(C)Cc2cc(C)on2)n1,-7.15%
7,CSc1nccc(N2C[C@@H](CN3CCCCC3)[C@@H](CO)C2)n1,27.1%
8,CCCS(=O)(=O)N1C[C@@H]2COC[C@@H](Cc3nc(C)no3)[C@@H]2C1,-1.7%
9,Nc1no[n+]([O-])c1C(=O)NCc1ccccn1,-13.7%
10,CC(c1nc(C2CC2)no1)N1CCN(Cc2cccc(C#N)c2)CC1 (stereo not drawn),-2.01%
11,O=C(c1ccc2c(c1)CCCC2)N1CCOCC1c1ncon1 (stereo not drawn),2.82%
12,CCc1ccc(CN2C[C@H](OC)[C@H]3COC[C@H]32)o1,-0.659%
13,COc1ccc(C2CCN(C(=O)c3ncccc3OC(C)C)C2)cc1 (stereo not drawn),11.5%
14,CCc1nc(CN2CCCN(C(=O)C3CCOCC3)CC2)cs1,18.1%
15,COCCN(C)C[C@@H]1CN(C(=O)c2sc3ccccc3c2C)C[C@@H]1CO,-6.69%
16,Cc1ccc(OC2(C(=O)N(C)Cc3ccoc3)CCNCC2)cc1,-16.8%
17,COc1cccc(C2(C(=O)NC3CCc4nccn4C3)CCCC2)c1 (stereo not drawn),10.9%
18,COCCNC(=O)c1cc(C(C)C)nc(N2CCCC2)n1,-9.32%
19,O=C(COc1cccc(F)c1)N1C[C@@H](O)[C@H](N2CCCC2)C1,-10.1%
20,c1ncn(CC2CN(CCCOc3ccc4c(c3)OCO4)CCO2)n1 (stereo not drawn),-4.94%
21,CN(C)C(=O)NC[C@H]1OC[C@@H]2CCN(Cc3ccoc3)C[C@@H]21,52.3%
22,CN(CCC1CCOCC1)[C@@H]1c2ccccc2C2(CCNCC2)[C@H]1O,-4.06%
23,CC1CCN(C(=O)Cc2ccc(S(=O)(=O)C(F)F)cc2)CC1,-11%

row,SMILES,cytotoxicity at 70.5 h
1,Cc1cc(N2CCOC(c3ccncn3)C2)ncn1 (stereo not drawn),-0.0886%
2,Nc1nnnn1NCc1ccccc1C(F)(F)F,-8.4%
3,O=C(NCCC1=CCCCC1)NCc1nnc2n1CCC2,-10.8%
4,CCn1ncc2c1C(COCC1CC1)N(Cc1c(C)noc1C)CC2 (stereo not drawn),0.596%
5,CN(Cc1nnc(C2CC2)n1C)C1CCN(Cc2ccccc2)C1 (stereo not drawn),17.5%
6,CC(C)C(NC(=O)N1CCS(=O)(=O)CC1)c1ccccc1Cl (stereo not drawn),-5.93%
7,Cc1cc(C)n(CC2CCCN2C(=O)c2ccc3[nH]c(=O)[nH]c3c2)n1 (stereo not drawn),-17.4%
8,Cc1cc(C)n(CC2CCCN2CCCS(N)(=O)=O)n1 (stereo not drawn),-8.83%
9,Cc1cccc(Nc2cc(C)nc(C3CCCCN3CC(N)=O)n2)n1 (stereo not drawn),-4.2%
10,CCC(O)CNC(=O)c1coc(COc2ccc3sc(C)nc3c2)n1 (stereo not drawn),12.2%
11,Cc1cnn(CC2CCCN2C(=O)Cc2ccc3c(c2)CCO3)c1 (stereo not drawn),-7.32%
12,Cn1c(Nc2ccc(F)cc2)c(C#N)c(=O)n(C)c1=O,-4.76%
13,CC(NC(=O)c1sccc1C1CC1)c1ccc2c(c1)CC(=O)N2 (stereo not drawn),-1.98%
14,CCc1nc2n(n1)CC(NCc1cnn(Cc3ccccc3)c1)CC2 (stereo not drawn),-5.29%
15,Cc1nccnc1N1CC[C@@H](NC(=O)c2cnccn2)[C@H](O)C1,-8.55%
16,CCc1ccc2nc(C)cc(C(=O)NC3CCCCNC3=O)c2c1 (stereo not drawn),1.7%
17,Cn1cc(C(=O)N2CC[C@@H]3[C@@H]2CCN3Cc2cccc(F)c2)cn1,-6.38%
18,O=C(NCCCO)c1nnsc1-c1ccccc1,-0.82%
19,O=C(CCc1cccs1)N1CCCC1c1noc(C2CC2)n1 (stereo not drawn),-6.44%
20,CC(O)CN1CC2(CCC1=O)CCN(C(=O)c1cnn(C)c1)CC2 (stereo not drawn),-1.73%
21,COc1ccccc1N1CC(NC(=O)Cn2cc(C(C)C)nn2)CC1=O (stereo not drawn),-9.11%
